In general, inhibition refers to the share of the control response that was lost under treatment. Broadly, the clearance is a measure of how efficiently the substance is removed, as volume per time.

The source of these data is patent US10640495B2, “Heterocycle derivatives having TrkA inhibitory activity” (Shionogi & Co., Ltd., priority 2015, dated 2020).

SMILES strings stand for the structures. Read-outs that look alike come from different tables or passages of the source.

In series [1] the target is hERG channel (IKr) (Homo sapiens (Human), UniProt Q12809). Put plainly: hERG test, whole cell patch clamp IKr in CHO cells (Test Example 3). The series is classed as cell-based. The following applies: pH 7.4, at of test compound (so in the source), CHO cells expressing hERG channel, read-out: % inhibition of tail peak current (IKr). From the text: For the purpose of assessing risk of an electrocardiogram QT interval prolongation of the compound of the present invention, effects of the compound of the present invention on delayed rectifier K^+ current (IKr), which plays an important role in the ventricular repolarization process, was studied using CHO cells expressing human ether-a-go-go related gene (hERG) channel.
Chain of hERG channel (IKr) (Q12809 whole entry): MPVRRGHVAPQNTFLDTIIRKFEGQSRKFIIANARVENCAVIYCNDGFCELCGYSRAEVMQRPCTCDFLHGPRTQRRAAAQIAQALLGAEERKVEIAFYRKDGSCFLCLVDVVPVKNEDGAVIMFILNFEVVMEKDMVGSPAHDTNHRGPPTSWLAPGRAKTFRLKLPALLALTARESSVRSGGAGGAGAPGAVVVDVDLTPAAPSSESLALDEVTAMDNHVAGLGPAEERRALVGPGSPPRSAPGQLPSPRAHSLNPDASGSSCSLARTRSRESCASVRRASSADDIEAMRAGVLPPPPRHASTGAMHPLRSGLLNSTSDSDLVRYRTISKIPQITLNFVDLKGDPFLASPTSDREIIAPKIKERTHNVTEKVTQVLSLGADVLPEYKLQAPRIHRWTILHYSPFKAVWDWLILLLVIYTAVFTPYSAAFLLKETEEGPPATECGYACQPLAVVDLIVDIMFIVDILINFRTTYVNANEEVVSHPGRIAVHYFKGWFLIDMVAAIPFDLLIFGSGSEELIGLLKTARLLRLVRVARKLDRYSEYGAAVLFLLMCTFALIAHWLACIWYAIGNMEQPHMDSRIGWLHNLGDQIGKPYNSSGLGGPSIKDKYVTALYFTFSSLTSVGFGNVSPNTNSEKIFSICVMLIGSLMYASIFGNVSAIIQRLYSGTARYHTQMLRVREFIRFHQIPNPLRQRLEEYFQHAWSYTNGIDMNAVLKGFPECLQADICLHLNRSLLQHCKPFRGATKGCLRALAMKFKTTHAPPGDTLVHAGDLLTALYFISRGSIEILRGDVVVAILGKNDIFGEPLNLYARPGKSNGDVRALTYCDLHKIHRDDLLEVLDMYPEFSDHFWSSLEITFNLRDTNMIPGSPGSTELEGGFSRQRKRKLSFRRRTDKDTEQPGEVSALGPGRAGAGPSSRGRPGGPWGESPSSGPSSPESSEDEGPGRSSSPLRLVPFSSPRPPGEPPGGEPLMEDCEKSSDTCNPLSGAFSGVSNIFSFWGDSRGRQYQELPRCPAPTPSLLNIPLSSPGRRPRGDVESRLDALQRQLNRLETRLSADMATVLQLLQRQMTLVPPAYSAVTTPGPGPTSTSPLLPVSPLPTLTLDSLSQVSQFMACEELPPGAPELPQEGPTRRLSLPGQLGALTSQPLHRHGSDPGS
After a cell was retained at a membrane potential of −80 mV by whole cell patch clamp method using an automated patch clamp system (QPatch; Sophion Bioscience A/S) and gave a leak potential of −50 mV, IKr induced by depolarization pulse stimulation at +20 mV for 2 seconds, and further, repolarization pulse stimulation at −50 mV for 2 seconds, was recorded. A vehicle, which is the 0.1-0.3% dimethyle sulfoxide solution in extracellular solution (NaCl: 145 mmol/L, KCl: 4 mmol/L, CaCl2: 2 mmol/L, MgCl2: 1 mmol/L, glucose: 10 mmol/L, HEPES (4-(2-hydroxyethyl)-1-piperazineethanesulfonic acid): 10 mmol/L, pH7.4), or the compound of the present invention had been dissolved at an objective concentration in the extracellular solution is applied to the cell at room temperature for 7 minutes or more. From the recording IKr, an absolute value of the tail peak current was measured based on the current value at the resting membrane potential using analysis software (QPatch assay software; Sophion Bioscience A/S). Further, the % inhibition of tail peak current for the compound of the present invention relative to the tail peak current after application of the vehicle is calculated to assess influence of the compound of the present invention on IKr.
(Result) % inhibition was shown at […] of test compound.

The target in series [2] is human TrkA (Homo sapiens (Human), UniProt P04629). Put plainly: Human TrkA inhibition assay (Test Example 2). The series is classed as biochemical. The method in brief: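 Mobility-shift readout of phosphorylated versus unphosphorylated fluorescent peptide gave conversion ratio, normalized to DMSO and no-enzyme wells; IC50 by logistic fit of 10- or 15-point 3-fold dilutions. Conditions: 1 nmol/L enzyme, 15 min compound preincubation, then 500 μmol/L ATP plus 1.5 μmol/L peptide, 120 min, 37 °C.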
Chain of human TrkA (P04629 440-796): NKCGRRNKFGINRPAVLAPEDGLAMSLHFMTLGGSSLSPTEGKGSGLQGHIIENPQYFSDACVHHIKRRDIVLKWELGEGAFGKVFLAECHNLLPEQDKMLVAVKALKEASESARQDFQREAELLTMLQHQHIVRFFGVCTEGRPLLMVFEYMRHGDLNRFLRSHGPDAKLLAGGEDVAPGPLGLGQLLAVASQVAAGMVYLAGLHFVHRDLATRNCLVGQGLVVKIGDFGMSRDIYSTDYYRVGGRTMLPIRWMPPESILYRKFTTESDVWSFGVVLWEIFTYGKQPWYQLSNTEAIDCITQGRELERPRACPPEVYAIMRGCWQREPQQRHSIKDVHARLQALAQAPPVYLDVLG

The nature of series [3]: Clearance test, intravenous administration in SD rats (Test Example 7). The series is classed as in vivo. The following applies: rat, plasma, intravenous administration 0.5 mg/kg or 1 μmol/kg, read-out: Total Clearance (CLtot). On the procedure:
Materials and Methods for Experiments • (1) Experimental animals: SD rats were used. • (2) Rearing condition: SD rats were allowed free access to solid feed and sterilized tap water. • (3) Setting of dosage and grouping: Intravenous administration was performed with the predetermined dosage. Grouping was set as below. (Dosage is changed per compound) Intravenous administration 0.5 mg/kg or 1 μmol/kg (n=2) • (4) Preparation of administration solutions: Administration was performed after solubilization by using dimethylacetamide/propylene glycol=1/1 or dimethyl sulfoxide/propylene glycol=1/1 as the solvent. • (5) Routes of administration: Intravenous administration was performed from caudal vein by syringes with needle. • (6) Evaluation items: Blood was collected serially and concentration of a compound of the present invention in plasma was measured by LC/MS/MS. • (7) Statistical analysis: About transition of concentration of a compound of the present invention in plasma, Total Clearance (CLtot) of a compound of the present invention was calculated by non-linear least-squares method program, WinNonlin (a registered trademark).

The mark [4] stands for this setting: Table 152, human TrkA inhibition, read-out: IC50_nM.
Setting [5] is: human TrkA 1 nmol/L, ATP 500 μmol/L, 120 min at 37° C., read-out: IC50 values (TrkA phosphorylation inhibition).
Where [6] appears, read: Table 157, human TrkA inhibition, read-out: IC50.

For `COCCN1C[C@@H](NC(=O)Nc2c(C)c(-c3cnn(C)c3)nn2-c2ccccc2)[C@H](c2ccccc2)O1` (racemic) [Compound I-4], the inhibition at 5 mol/L in series [1] amounted to 14.1%. Further, the IC50 in series [2] (setting [4]) is < 100 nM.
As for `COCCN1C[C@@H](NC(=O)Nc2c(C)c(-c3cnc4c(cnn4C)c3)nn2-c2ccccc2)[C@H](c2ccnc(F)c2)O1` (racemic) [Compound I-40], the IC50 in series [2] (setting [5]) was 1.6 nM. Moreover, the clearance in series [3] is 2.82 mL/min/kg.
For `COCCN1C[C@@H](NC(=O)Nc2c(C)c(-c3cnc(OC)nc3)nn2-c2ccccc2)[C@H](c2cnc(F)c(F)c2)O1` (racemic) [Compound I-57], the IC50 in series [2] (setting [5]) came out at 2.2 nM. Moreover, the clearance in series [3] worked out at 7.93 mL/min/kg.
As to `COCCN1C[C@@H](NC(=O)Nc2c(C)c(-c3cnc4c(c3)nnn4C)nn2-c2ccccc2)[C@H](c2ccnc(F)c2)O1` (racemic) [Compound I-90], in series [2] (Table 153, human TrkA inhibition, read-out: IC50), the IC50 is < 100 nM. In series [3], the clearance was 6.35 mL/min/kg.
`COCCC1C[C@@H](NC(=O)Nc2c(C)c(-c3cnn(C)c3)nn2-c2ccccc2)[C@H](c2ccccc2)O1` (some centres unmarked) [Compound I-6]: the inhibition at 5 mol/L in series [1] was 8.9%. Further, the IC50 in series [2] (setting [4]) was < 100 nM.
As to `COCC[C@@H]1O[C@@H](NC(=O)Nc2c(C)c(-c3cnn(C)c3)nn2-c2ccccc2)[C@H](c2ccccc2)O1` [Compound I-7], in series [1], the inhibition at 5 mol/L was 4.2%. Moreover, in series [2] (setting [5]), the IC50 is 6.1 nM.
As to `COCCC1C[C@@H](NC(=O)Nc2c(C)c(-c3cnc(C)nc3)nn2-c2ccccc2)[C@H](c2ccccc2)O1` (some centres unmarked) [Compound I-12], the inhibition at 5 mol/L in series [1] worked out at 17.6%. Moreover, in series [2] (setting [4]), the IC50 is < 100 nM. Further, the clearance in series [3] turned out to be 13.6 mL/min/kg.
With `CCN1CCC(NC(=O)c2ccc(-c3nn(-c4ccccc4)c(NC(=O)N[C@@H]4CC(CCOC)O[C@H]4c4ccccc4)c3C)cc2)CC1` (some centres unmarked) [Compound I-19], in series [2] (setting [4]), the IC50 is < 100 nM. Moreover, the clearance in series [3] was 15.6 mL/min/kg.
As to `COCC[C@@H]1C[C@@H](NC(=O)Nc2c(C)c(-c3cnc4c(c3)nnn4C)nn2-c2ccccc2)[C@H](c2ccnc(F)c2)O1` [Compound I-275], in series [2] (setting [5]), the IC50 worked out at 3 nM. In addition, in series [3], the clearance is 3.73 mL/min/kg.
`COCCN1C[C@@H](NC(=O)Nc2c(C)c(CO[Si](C)(C)C(C)(C)C)nn2-c2ccccc2)[C@H](c2ccc(F)c(F)c2)O1` [Compound I-605]: in series [2] (setting [6]), the IC50 is 100 to 1000 nM.
Still for that read-out and setting: the figure for `COCCN1C[C@@H](NC(=O)Nc2c(C)c(OCC3COC(C)(C)O3)nn2-c2ccccc2)[C@H](c2ccc(F)c(F)c2)O1` (some centres unmarked) [Compound I-614] is < 100 nM; for `COCCN1C[C@@H](NC(=O)Nc2c(C)c(OCC(O)CO)nn2-c2ccccc2)[C@H](c2ccc(F)c(F)c2)O1` (some centres unmarked) [Compound I-615] it is < 100 nM; for `COCCN1C[C@@H](NC(=O)Nc2c(C)c(-c3ccnc(CO)c3)nn2-c2ccccc2)[C@H](c2ccc(F)c(F)c2)O1` [Compound I-617] it is < 100 nM.
On to `COCCN1C[C@@H](NC(=O)Nc2c(C)c(-c3ccnc(CN(C)C)c3)nn2-c2ccccc2)[C@H](c2ccc(F)c(F)c2)O1` [Compound I-618], for which the IC50 in series [2] (setting [6]) is < 100 nM.
Consider `COCCN1C[C@@H](NC(=O)Nc2c(C)c(CO)nn2-c2ccccc2)[C@H](c2ccc(F)c(F)c2)O1` [Compound I-619], for which the IC50 in series [2] (setting [6]) is < 100 nM.
Still for that read-out and setting: for `COCCN1C[C@@H](NC(=O)Nc2c(C)c(-c3cnc(OC)c(COC(C)=O)c3)nn2-c2ccccc2)[C@H](c2ccc(F)c(F)c2)O1` [Compound I-636] the value was < 100 nM.
On the same count and under the same terms, for `COCCN1C[C@@H](NC(=O)Nc2c(C)c(-c3cnc(OC)c(CO)c3)nn2-c2ccccc2)[C@H](c2ccc(F)c(F)c2)O1` [Compound I-637] the value was < 100 nM.
For the compound `COCCN1C[C@@H](NC(=O)Nc2c(C)c(-c3ccc(CN(C)C)nc3)nn2-c2ccccc2)[C@H](c2ccc(F)c(F)c2)O1` [Compound I-638], the IC50 in series [2] (setting [5]) came out at 1.4 nM.
Consider `COCCN1C[C@@H](NC(=O)Nc2c(C)c(-c3cnc(OC)c(CN(C)C)c3)nn2-c2ccccc2)[C@H](c2ccc(F)c(F)c2)O1` [Compound I-639], for which the IC50 in series [2] (setting [5]) came out at 0.52 nM.
Take `COCCN1C[C@@H](NC(=O)Nc2c(C)c(CN(C)C)nn2-c2ccccc2)[C@H](c2ccc(F)c(F)c2)O1` [Compound I-640]: in series [2] (setting [6]), the IC50 was 100 to 1000 nM.
For the compound `COCCN1C[C@@H](NC(=O)Nc2c(C)c(CCN(C)C)nn2-c2ccccc2)[C@H](c2ccc(F)c(F)c2)O1` [Compound I-641], the IC50 in series [2] (setting [6]) was < 100 nM.
For `COCCN1C[C@@H](NC(=O)Nc2c(C)c(-c3ccnc(CCN(C)C)c3)nn2-c2ccccc2)[C@H](c2ccc(F)c(F)c2)O1` [Compound I-643], in series [2] (setting [6]), the IC50 is < 100 nM.
Turning to `CCN1C[C@@H](NC(=O)Nc2c(C)c(OCC3CNC(=O)O3)nn2-c2ccccc2)[C@H](c2ccc(F)c(F)c2)O1` (some centres unmarked) [Compound I-675], the IC50 in series [2] (setting [6]) is < 100 nM.
Same read-out and setting: the figure for `CCN1C[C@@H](NC(=O)Nc2c(C)c(OC(C)C3CCN(C)CC3)nn2-c2ccccc2)[C@H](c2ccc(F)c(F)c2)O1` (some centres unmarked) [Compound I-679] is < 100 nM.
On the same count and under the same terms, for `COCCN1C[C@@H](NC(=O)Nc2c(Br)c(-c3cnc(OC)nc3)nn2-c2ccccc2)[C@H](c2ccnc(F)c2)O1` [Compound I-680] the value was < 100 nM.
